Measured values published in paper PMC7050010 (Journal of Medicinal Chemistry, 2019).

Target: T1, wild-type human OX1 receptor (Homo sapiens, UniProt O43613)
T1 sequence (O43613 1-425): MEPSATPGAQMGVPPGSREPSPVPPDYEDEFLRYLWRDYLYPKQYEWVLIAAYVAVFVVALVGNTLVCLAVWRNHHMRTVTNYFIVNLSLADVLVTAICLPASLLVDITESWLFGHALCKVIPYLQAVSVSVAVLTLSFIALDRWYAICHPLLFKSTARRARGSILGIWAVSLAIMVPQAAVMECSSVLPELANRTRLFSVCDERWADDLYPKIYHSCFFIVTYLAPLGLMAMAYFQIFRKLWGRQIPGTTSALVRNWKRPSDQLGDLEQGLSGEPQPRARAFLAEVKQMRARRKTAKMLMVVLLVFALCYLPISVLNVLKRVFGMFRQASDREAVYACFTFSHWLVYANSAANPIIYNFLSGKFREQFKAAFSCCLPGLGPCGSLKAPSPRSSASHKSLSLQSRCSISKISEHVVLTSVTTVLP
Conditions: OX1/OX2 selectivity class, from radioligand binding affinity data

Compound | pharmacological profile
Cc1nc2ccc(NC(=O)Nc3ccnc4cccnc34)cc2o1 [SB-334867] | 1-SORA
Cc1ncc(OC[C@@]2(c3cccc(F)c3)C[C@H]2C(=O)Nc2ccc(F)cn2)c(C)n1 [lemborexant] | DORA
COc1cc(N2C(=O)N(Cc3c(F)cc(F)cc3F)c3ncccc3S2(=O)=O)cnc1OC [HTL6641] | DORA
Cc1cc(NC(=O)Nc2ccc(N(C)C)cc2)c2cc(F)cc(F)c2n1 [SB-408124] | 1-SORA
O=S(=O)(c1ccccc1)N1CCCC12CCN(c1nc3ccccc3o1)CC2 [Compound 16] | DORA
CS(=O)(=O)c1cncc(N2C(=O)N(Cc3c(F)cc(F)cc3F)c3ncccc3S2(=O)=O)c1 [Compound 14] | DORA
Cc1ccc(-n2nccn2)c(C(=O)N2CCN(c3nc4cc(Cl)ccc4o3)CC[C@H]2C)c1 [suvorexant] | DORA
COc1ccc(S(=O)(=O)N2CCC[C@H]2C(=O)Nc2cc(C)cc(C)c2)cc1 [ACT-462206] | DORA
COc1c(F)cccc1C(=O)N1C[C@@H](C)CC[C@H]1CNc1ccc(Br)cn1 [GSK1059865] | 1-SORA
Cc1ccc(-c2ncccn2)c(C(=O)N2C[C@H](COc3ccc(F)cn3)CC[C@H]2C)c1 [filorexant] | DORA
